{"source": "patent US20060105393A1", "about": "“Ligand-receptor tracking assays” (priority 2004, published 2006)", "key": {"[1]": {"biological_target": "T1, GHSR-1a receptor (Homo sapiens, UniProt Q92847)", "T1 construct": "expressed in transfected cells", "T1 sequence (Q92847 whole entry)": "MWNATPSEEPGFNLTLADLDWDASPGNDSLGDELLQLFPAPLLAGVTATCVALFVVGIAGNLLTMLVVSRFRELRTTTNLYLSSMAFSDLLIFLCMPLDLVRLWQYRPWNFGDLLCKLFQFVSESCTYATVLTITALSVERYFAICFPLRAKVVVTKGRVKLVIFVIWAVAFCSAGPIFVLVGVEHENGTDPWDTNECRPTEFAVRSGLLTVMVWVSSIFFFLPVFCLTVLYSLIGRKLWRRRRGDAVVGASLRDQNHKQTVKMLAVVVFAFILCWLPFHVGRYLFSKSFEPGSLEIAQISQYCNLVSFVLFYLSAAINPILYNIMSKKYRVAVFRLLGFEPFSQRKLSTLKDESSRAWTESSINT", "assay": "Internalization of GHSR-1a with Ghrelin(1-19)-Texas Red (high content ligand tracking)", "assay_type": "cell-based", "details": "1 μM competitor, 10 nM Ghrelin(1-19)-Texas Red, 30 minutes at 37° C. (FIG. 7)"}, "[2]": {"biological_target": "T2, SSTR-5 (Homo sapiens, UniProt P35346)", "T2 construct": "expressed in transfected cells", "T2 sequence (P35346 whole entry)": "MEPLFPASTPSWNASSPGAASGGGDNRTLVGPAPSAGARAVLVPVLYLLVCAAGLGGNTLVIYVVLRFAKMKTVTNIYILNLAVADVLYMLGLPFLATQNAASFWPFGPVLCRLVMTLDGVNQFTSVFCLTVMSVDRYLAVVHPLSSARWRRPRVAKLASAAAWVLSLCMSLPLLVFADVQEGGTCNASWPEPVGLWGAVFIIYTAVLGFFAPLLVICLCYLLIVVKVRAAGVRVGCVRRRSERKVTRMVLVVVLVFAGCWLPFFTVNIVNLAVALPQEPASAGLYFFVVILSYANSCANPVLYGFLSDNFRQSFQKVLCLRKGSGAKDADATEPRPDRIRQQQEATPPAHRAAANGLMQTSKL", "assay": "Multiplexed internalization assay, SSTR-5 readout (Atto590-SST14) in mixed NK3R and SSTR5 cells", "assay_type": "cell-based", "details": "for SSTR-5 internalization with excess competitor: 1 μM competitor (FIG. 5)"}, "[3]": {"biological_target": "T3, NK3R (Homo sapiens, UniProt P29371)", "T3 sequence (P29371 1-465)": "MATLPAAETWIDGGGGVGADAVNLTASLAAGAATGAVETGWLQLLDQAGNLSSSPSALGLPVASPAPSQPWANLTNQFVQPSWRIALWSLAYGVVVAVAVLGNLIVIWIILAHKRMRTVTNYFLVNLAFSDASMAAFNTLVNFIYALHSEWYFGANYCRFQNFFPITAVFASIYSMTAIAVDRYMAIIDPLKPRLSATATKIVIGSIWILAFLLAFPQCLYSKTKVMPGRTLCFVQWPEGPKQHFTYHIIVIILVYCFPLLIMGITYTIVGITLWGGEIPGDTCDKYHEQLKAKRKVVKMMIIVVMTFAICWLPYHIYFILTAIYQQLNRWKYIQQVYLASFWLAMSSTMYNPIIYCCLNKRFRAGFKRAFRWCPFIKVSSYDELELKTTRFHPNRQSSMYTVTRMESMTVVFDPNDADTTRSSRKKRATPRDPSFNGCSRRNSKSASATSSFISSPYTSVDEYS", "details": "1 μM competitor, 1 nM Atto655-NKB, 30 minutes at 37° C. (FIG. 3)"}, "[4]": {"biological_target": "T3, NK3R", "details": "mixed cells"}, "[5]": {"biological_target": "hV1bR (Homo sapiens, UniProt P47901)", "sequence (P47901 whole entry)": "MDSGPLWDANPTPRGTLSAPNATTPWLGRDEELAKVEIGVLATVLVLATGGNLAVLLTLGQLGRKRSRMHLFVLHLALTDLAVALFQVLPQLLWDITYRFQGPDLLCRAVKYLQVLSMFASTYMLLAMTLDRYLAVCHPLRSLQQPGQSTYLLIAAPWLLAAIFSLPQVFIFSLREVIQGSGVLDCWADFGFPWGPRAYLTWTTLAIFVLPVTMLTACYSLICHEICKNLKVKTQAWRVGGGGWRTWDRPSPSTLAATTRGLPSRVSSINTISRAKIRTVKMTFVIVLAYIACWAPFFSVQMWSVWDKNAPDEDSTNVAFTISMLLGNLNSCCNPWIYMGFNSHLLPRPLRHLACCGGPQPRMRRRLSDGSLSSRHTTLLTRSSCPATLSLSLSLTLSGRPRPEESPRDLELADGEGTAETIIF", "details": "100 nM competitor, 5 nM BO-TMR-vasopressin, 30 minutes at 37° C. (FIG. 9)"}, "[6]": {"biological_target": "recombinant human Somatostatin receptor 5 (Homo sapiens, UniProt P35346)", "sequence (P35346 whole entry)": "as the sequence (P35346 whole entry) above", "details": "1 μM competitor, 100 nM Atto590-SST14, 30 minutes at 37° C. (FIG. 1)"}}}
{"compound": "CC(C)(N)C(=O)N[C@H](COCc1ccccc1)C(=O)N1CCC2(CC1)CN(S(C)(=O)=O)c1ccccc12", "note": "[MK0677]", "values": [{"measurement": "formation of fluorescent ERCs on co-incubation with excess competitor", "setting": "[1]", "result": "blocked the formation of fluorescent ERCs"}]}
{"compound": "CC[C@H](NC(=O)c1c(C)c(-c2ccccc2)nc2ccccc12)c1ccccc1", "note": "[SB222200]", "values": [{"measurement": "SSTR-5 internalization with excess competitor", "setting": "[2]", "result": "no effect"}, {"measurement": "amount of internalized Atto590-SST14 with increasing amount of competitor", "setting": "[2]; dose response (FIG. 6)", "result": "unaffected"}, {"measurement": "formation of fluorescent ERCs on co-incubation with excess competitor", "setting": "[3]", "result": "blocked the formation of fluorescent ERCs"}, {"measurement": "NK3R mediated internalization of fluorescent ligand with excess competitor", "setting": "[4]; 1 μM competitor (FIG. 5)", "result": "blocked"}]}
{"compound": "Arg-8-Vasopressin", "values": [{"measurement": "formation of fluorescent ERCs on co-incubation with excess competitor", "setting": "[5]", "result": "blocked the formation of fluorescent ERCs in most cells"}]}
{"compound": "Somatostatin-14 [SST14]", "values": [{"measurement": "SSTR-5 internalization with excess competitor", "setting": "[2]", "result": "inhibited in a selective manner"}, {"measurement": "formation of fluorescent ERCs on co-incubation with excess competitor", "setting": "[6]", "result": "block the formation of fluorescent ERCs"}, {"measurement": "intensity of Atto655-NKB in ERCs with increasing amount of competitor", "setting": "[4]; dose response (FIG. 6)", "result": "unchanged"}]}
